From patent US20260070945A1, “MACROCYCLIC IMMUNOMODULATORS” (Bristol-Myers Squibb Company, priority 2022, published 2026)
*1 amine or outer side, *2 acyl side, *3 side chain or, on linkers, in order; H or OH if unused. Where a SMILES comes first, the peptide text is derived from it. Bridges are numbered along the chain shown (N, C = ends). [ ]: non-standard residue; d: D form. The star is where a group is joined. ξ: configuration not given here. Phe(4-COOH) = N[C@@H](Cc1ccc(C(=O)O)cc1)C(=O)O; Bip = N[C@@H](Cc1ccc(-c2ccccc2)cc1)C(=O)O; Phe(3-Me) = Cc1cccc(C[C@H](N)C(=O)O)c1; NMeAEEA = CN(CCOCCOCC(=O)[*:2])[*:1]; Cha = N[C@@H](CC1CCCCC1)C(=O)O; Thr(3ξ) = CC(O)[C@H](N)C(=O)O; hSer = N[C@@H](CCO)C(=O)O; Carboxymethyl = O=C(O)C*; NMeA = CN[C@@H](C)C(=O)O; Orn = NCCC[C@H](N)C(=O)O; Aun = NCCCCCCCCCCC(=O)O; Dab = NCC[C@H](N)C(=O)O; AEEA = NCCOCCOCC(=O)O

The molecules below were run against T1, PD-1/PD-L1 interaction (PE-labeled human PD-L1-Ig binding to Jurkat cell line over-expressing human PD-1) (Homo sapiens, UniProt Q15116) (assay: Jurkat-PD-1 Cell Binding High-Content Screening Assay (CBA)). Details: Jurkat-hPD-1 cells, PE-labeled PD-L1-Ig 20 nM final; read-out: Jurkat HPD1 PDL1 IC50.
T1 construct: expressed in transfected cells; host or cells: Jurkat
In short: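 Compound is added first to the PD-1-expressing Jurkat cells and held 2 h at 37 °C in serum-containing DMEM. The fluorescent PD-L1 fusion follows at 20 nM final for 1 h. Fixed, Hoechst-stained cells are then imaged for bound label.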

T1 sequence (Q15116 25-288): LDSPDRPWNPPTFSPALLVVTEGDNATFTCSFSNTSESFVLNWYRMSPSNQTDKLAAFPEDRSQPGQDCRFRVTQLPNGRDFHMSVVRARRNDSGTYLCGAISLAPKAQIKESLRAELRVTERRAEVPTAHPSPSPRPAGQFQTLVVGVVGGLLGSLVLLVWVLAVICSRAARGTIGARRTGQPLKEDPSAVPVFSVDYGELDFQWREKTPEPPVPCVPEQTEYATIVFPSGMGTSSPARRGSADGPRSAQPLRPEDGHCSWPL

Compound | IC50 [nM]
Cc1cccc(C[C@@H]2NC(=O)[C@H](CC(=O)O)NC(=O)[C@H](Cc3ccc(OCC(=O)O)cc3)NC(=O)[C@H](C(C)O)NC(=O)CSC[C@@H](C(=O)N(C)CCOCCOCC(=O)NCCCCCCCCCCC(=O)O)NC(=O)[C@H](CCCN)NC(=O)[C@H](C(C)C)NC(=O)[C@H](CC3CCCCC3)NC(=O)[C@H](CCN)NC(=O)[C@@H](CC(C)C)NC(=O)[C@H](C)N(C)C(=O)[C@H](C(C)C)NC(=O)[C@H](Cc3ccc(-c4ccccc4)cc3)NC(=O)[C@H](C(C)C)NC2=O)c1 (stereo partly drawn) [Example 2219] ({CH2CO}-[Thr(3ξ)]Y(Carboxymethyl)D[Phe(3-Me)]V[Bip]V[NMeA][dL][Dab][Cha]V[Orn]C[NMeAEEA][Aun]-OH; thioether N-14) | 6.2
CC(=O)NCCCC[C@@H]1NC(=O)[C@H](C(C)C)NC(=O)[C@H](CC2CCCCC2)NC(=O)[C@H](CCN)NC(=O)[C@@H](CC(C)C)NC(=O)[C@H](C)N(C)C(=O)[C@H](CCO)NC(=O)[C@H](Cc2ccc(-c3ccccc3)cc2)NC(=O)[C@H](C(C)C)NC(=O)[C@H](Cc2cccc(C)c2)NC(=O)[C@H](CC(=O)O)NC(=O)[C@H](Cc2ccc(OCC(=O)O)cc2)NC(=O)[C@H](Cc2ccc(OCC(=O)O)cc2)NC(=O)CSC[C@@H](C(=O)N[C@@H](CCN)C(=O)NCCCCCCCCCCC(=O)O)NC1=O [Example 2221] ({CH2CO}-Y(Carboxymethyl)Y(Carboxymethyl)D[Phe(3-Me)]V[Bip][hSer][NMeA][dL][Dab][Cha]VK(Ac)C[Dab][Aun]-OH; thioether N-14) | 11.6
CC(=O)NCCCC[C@@H]1NC(=O)[C@H](Cc2ccc(-c3ccccc3)cc2)NC(=O)[C@H](C(C)C)NC(=O)[C@H](Cc2cccc(C)c2)NC(=O)[C@H](CC(=O)O)NC(=O)[C@H](Cc2ccc(OCC(=O)O)cc2)NC(=O)[C@H](Cc2ccc(OCC(=O)O)cc2)NC(=O)CSC[C@@H](C(=O)NCCOCCOCC(=O)NCCCCCCCCCCC(=O)O)NC(=O)[C@H](CCO)NC(=O)[C@H](C(C)C)NC(=O)[C@H](CC2CCCCC2)NC(=O)[C@H](CCN)NC(=O)[C@@H](CC(C)C)NC(=O)[C@H](C)N(C)C1=O [Example 2222] ({CH2CO}-Y(Carboxymethyl)Y(Carboxymethyl)D[Phe(3-Me)]V[Bip]K(Ac)[NMeA][dL][Dab][Cha]V[hSer]C[AEEA][Aun]-OH; thioether N-14) | 10.6
CC(=O)NCCCC[C@@H]1NC(=O)[C@H](Cc2ccc(-c3ccccc3)cc2)NC(=O)[C@H](CC(C)C)NC(=O)[C@H](Cc2cccc(C)c2)NC(=O)[C@H](CC(=O)O)NC(=O)[C@H](Cc2ccc(OCC(=O)O)cc2)NC(=O)[C@H](Cc2ccc(OCC(=O)O)cc2)NC(=O)CSC[C@@H](C(=O)NCCOCCOCC(=O)NCCCCCCCCCCC(=O)O)NC(=O)[C@H](CCCCN)NC(=O)[C@H](C(C)C)NC(=O)[C@H](CC2CCCCC2)NC(=O)[C@H](CCN)NC(=O)[C@@H](CC(C)C)NC(=O)[C@H](C)N(C)C1=O [Example 2223] ({CH2CO}-Y(Carboxymethyl)Y(Carboxymethyl)D[Phe(3-Me)]L[Bip]K(Ac)[NMeA][dL][Dab][Cha]VKC[AEEA][Aun]-OH; thioether N-14) | 10.9
CC(C)C[C@@H]1NC(=O)[C@H](Cc2c[nH]c3ccccc23)NC(=O)[C@H](CC(=O)O)NC(=O)[C@H](Cc2ccc(C(=O)O)cc2)NC(=O)[C@H](Cc2ccc(OCC(=O)O)cc2)NC(=O)CSC[C@@H](C(=O)NCCOCCOCC(=O)NCCCCCCCCCCC(=O)O)NC(=O)[C@H](CO)NC(=O)[C@H](C(C)C)NC(=O)[C@H](CC2CCCCC2)NC(=O)[C@H](CCN)NC(=O)[C@@H](CC(C)C)NC(=O)[C@H](C)N(C)C(=O)[C@H](C(C)C)NC(=O)[C@H](Cc2ccc(-c3ccccc3)cc2)NC1=O [Example 2225] ({CH2CO}-Y(Carboxymethyl)[Phe(4-COOH)]DWL[Bip]V[NMeA][dL][Dab][Cha]VSC[AEEA][Aun]-OH; thioether N-14) | 9.7
CC(C)C[C@@H]1NC(=O)[C@H](Cc2c[nH]c3ccccc23)NC(=O)[C@H](CC(=O)O)NC(=O)[C@H](Cc2ccc(C(=O)O)cc2)NC(=O)[C@H](Cc2ccc(OCC(=O)O)cc2)NC(=O)CSC[C@@H](C(=O)NCCOCCOCC(=O)NCCCCCCCCCCC(=O)O)NC(=O)[C@H](CCO)NC(=O)[C@H](C(C)C)NC(=O)[C@H](CC2CCCCC2)NC(=O)[C@H](CCN)NC(=O)[C@@H](CC(C)C)NC(=O)[C@H](C)N(C)C(=O)[C@H](CCC(N)=O)NC(=O)[C@H](Cc2ccc(-c3ccccc3)cc2)NC1=O [Example 2226] ({CH2CO}-Y(Carboxymethyl)[Phe(4-COOH)]DWL[Bip]Q[NMeA][dL][Dab][Cha]V[hSer]C[AEEA][Aun]-OH; thioether N-14) | 26.7
CC(C)C[C@@H]1NC(=O)[C@H](Cc2c[nH]c3ccccc23)NC(=O)[C@H](CC(=O)O)NC(=O)[C@H](Cc2ccc(C(=O)O)cc2)NC(=O)[C@H](Cc2ccc(OCC(=O)O)cc2)NC(=O)CSC[C@@H](C(=O)NCCOCCOCC(=O)NCCCCCCCCCCC(=O)O)NC(=O)[C@H](CCO)NC(=O)[C@H](C(C)C)NC(=O)[C@H](CC2CCCCC2)NC(=O)[C@H](CCN)NC(=O)[C@@H](CC(C)C)NC(=O)[C@H](C)N(C)C(=O)[C@H](CCC(N)=O)NC(=O)[C@H](Cc2ccc(-c3ccccc3)cc2)NC1=O [Example 2227] ({CH2CO}-Y(Carboxymethyl)[Phe(4-COOH)]DWL[Bip]Q[NMeA][dL][Dab][Cha]V[hSer]C[AEEA][Aun]-OH; thioether N-14) | 34

The remaining molecules from weak to strong by IC50, led by results:

IC50 [nM] | Compound
52 | CC(C)C[C@@H]1NC(=O)[C@H](Cc2c[nH]c3ccccc23)NC(=O)[C@H](CC(=O)O)NC(=O)[C@H](Cc2ccc(C(=O)O)cc2)NC(=O)[C@H](Cc2ccc(OCC(=O)O)cc2)NC(=O)CSC[C@@H](C(=O)NCCOCCOCC(=O)NCCCCCCCCCCC(=O)O)NC(=O)[C@H](CO)NC(=O)[C@H](C(C)C)NC(=O)[C@H](CC2CCCCC2)NC(=O)[C@H](CCN)NC(=O)[C@@H](CC(C)C)NC(=O)[C@H](C)N(C)C(=O)[C@H](Cc2ccc(O)cc2)NC(=O)[C@H](Cc2ccc(-c3ccccc3)cc2)NC1=O [Example 2228] ({CH2CO}-Y(Carboxymethyl)[Phe(4-COOH)]DWL[Bip]Y[NMeA][dL][Dab][Cha]VSC[AEEA][Aun]-OH; thioether N-14)
13 | CC(=O)NCCCC[C@@H]1NC(=O)[C@H](C(C)C)NC(=O)[C@H](CC2CCCCC2)NC(=O)[C@H](CCN)NC(=O)[C@@H](CC(C)C)NC(=O)[C@H](C)N(C)C(=O)[C@H](CCC(N)=O)NC(=O)[C@H](Cc2ccc(-c3ccccc3)cc2)NC(=O)[C@H](CC(C)C)NC(=O)[C@H](Cc2cccc(C)c2)NC(=O)[C@H](CC(=O)O)NC(=O)[C@H](Cc2ccc(C(=O)O)cc2)NC(=O)[C@H](Cc2ccc(OCC(=O)O)cc2)NC(=O)CSC[C@@H](C(=O)NCCOCCOCC(=O)NCCCCCCCCCCC(=O)O)NC1=O [Example 2230] ({CH2CO}-Y(Carboxymethyl)[Phe(4-COOH)]D[Phe(3-Me)]L[Bip]Q[NMeA][dL][Dab][Cha]VK(Ac)C[AEEA][Aun]-OH; thioether N-14)
10.1 | CC(=O)NCCCC[C@@H]1NC(=O)[C@H](C(C)C)NC(=O)[C@H](CC2CCCCC2)NC(=O)[C@H](CCN)NC(=O)[C@@H](CC(C)C)NC(=O)[C@H](C)N(C)C(=O)[C@H](CCC(N)=O)NC(=O)[C@H](Cc2ccc(-c3ccccc3)cc2)NC(=O)[C@H](C(C)C)NC(=O)[C@H](Cc2cccc(C)c2)NC(=O)[C@H](CC(=O)O)NC(=O)[C@H](Cc2ccc(OCC(=O)O)cc2)NC(=O)[C@H](Cc2ccc(OCC(=O)O)cc2)NC(=O)CSC[C@@H](C(=O)N[C@@H](CCN)C(=O)NCCCCCCCCCCC(=O)O)NC1=O [Example 2220] ({CH2CO}-Y(Carboxymethyl)Y(Carboxymethyl)D[Phe(3-Me)]V[Bip]Q[NMeA][dL][Dab][Cha]VK(Ac)C[Dab][Aun]-OH; thioether N-14)
5.7 | CC(=O)NCCCC[C@@H]1NC(=O)[C@H](Cc2ccc(-c3ccccc3)cc2)NC(=O)[C@H](C(C)C)NC(=O)[C@H](Cc2c[nH]c3ccccc23)NC(=O)[C@H](CC(=O)O)NC(=O)[C@H](Cc2ccc(OCC(=O)O)cc2)NC(=O)[C@H](Cc2ccc(OCC(=O)O)cc2)NC(=O)CSC[C@@H](C(=O)NCCOCCOCC(=O)NCCCCCCCCCCC(=O)O)NC(=O)[C@H](CCCCN)NC(=O)[C@H](C(C)C)NC(=O)[C@H](CC2CCCCC2)NC(=O)[C@H](CCN)NC(=O)[C@@H](CC(C)C)NC(=O)[C@H](C)N(C)C1=O [Example 2224] ({CH2CO}-Y(Carboxymethyl)Y(Carboxymethyl)DWV[Bip]K(Ac)[NMeA][dL][Dab][Cha]VKC[AEEA][Aun]-OH; thioether N-14)
4.8 | CC(=O)NCCCC[C@@H]1NC(=O)[C@H](Cc2ccc(-c3ccccc3)cc2)NC(=O)[C@H](CC(C)C)NC(=O)[C@H](Cc2c[nH]c3ccccc23)NC(=O)[C@H](CC(=O)O)NC(=O)[C@H](Cc2ccc(C(=O)O)cc2)NC(=O)[C@H](Cc2ccc(OCC(=O)O)cc2)NC(=O)CSC[C@@H](C(=O)NCCOCCOCC(=O)NCCCCCCCCCCC(=O)O)NC(=O)[C@H](CO)NC(=O)[C@H](C(C)C)NC(=O)[C@H](CC2CCCCC2)NC(=O)[C@H](CCN)NC(=O)[C@@H](CC(C)C)NC(=O)[C@H](C)N(C)C1=O [Example 2229] ({CH2CO}-Y(Carboxymethyl)[Phe(4-COOH)]DWL[Bip]K(Ac)[NMeA][dL][Dab][Cha]VSC[AEEA][Aun]-OH; thioether N-14)
3.3 | Cc1cccc(C[C@@H]2NC(=O)[C@H](CC(=O)O)NC(=O)[C@H](Cc3ccc(C(=O)O)cc3)NC(=O)[C@H](Cc3ccc(OCC(=O)O)cc3)NC(=O)CSC[C@@H](C(=O)NCCOCCOCC(=O)NCCCCCCCCCCC(=O)O)NC(=O)[C@H](CCCCN)NC(=O)[C@H](C(C)C)NC(=O)[C@H](CC3CCCCC3)NC(=O)[C@H](CCN)NC(=O)[C@@H](CC(C)C)NC(=O)[C@H](C)N(C)C(=O)[C@H](C(C)C)NC(=O)[C@H](Cc3ccc(-c4ccccc4)cc3)NC(=O)[C@H](CC(C)C)NC2=O)c1 [Example 2231] ({CH2CO}-Y(Carboxymethyl)[Phe(4-COOH)]D[Phe(3-Me)]L[Bip]V[NMeA][dL][Dab][Cha]VKC[AEEA][Aun]-OH; thioether N-14)
